Test results published in ChEMBL document CHEMBL4052827, “Discovery of Tetrahydroisoquinoline-Containing CXCR4 Antagonists with Improved in Vitro ADMET Properties” (J Med Chem, 2018).

Tests used:
[1] = molecular target: Cytochrome P450 2D6 (Homo sapiens, UniProt P10635); assay: Inhibition of recombinant human CYP2D6 expressed in microsomes of insect cells using AMMC as substrate preincubated for 30 mins followed by NADP addition after 45 mins by fluorescence analysis
[2] = Antagonist activity at mAChR in human CCRF-CEM cells assessed as decrease in acetylacholine-stimulated Ca2+ flux preincubated for 25 mins followed by acetylacholine addition measured for 90 secs by calcium dye-based fluorescence assay; format: cell-based
[3] = Permeability of the compound at pH 7.4 at 100 uM after 4 hrs by PAMPA
[4] = Agonist activity at mAChR in human CCRF-CEM cells assessed as induction of Ca2+ flux measured for 90 secs by calcium dye-based fluorescence assay; format: cell-based
[5] = Metabolic stability in mouse liver microsomes assessed as parent compound remaining at 0.5 uM after 10 mins in presence of NADPH by LC-MS/MS analysis
[6] = Permeability of the compound at pH 5.5 at 100 uM after 4 hrs by PAMPA
[7] = molecular target: T1, C-X-C chemokine receptor type 4 (Homo sapiens, UniProt P61073); assay: Agonist activity at CXCR4 in human CCRF-CEM cells assessed as induction of Ca2+ flux measured for 90 secs by calcium dye-based fluorescence assay; format: functional, cell-based
T1 sequence (P61073 whole entry): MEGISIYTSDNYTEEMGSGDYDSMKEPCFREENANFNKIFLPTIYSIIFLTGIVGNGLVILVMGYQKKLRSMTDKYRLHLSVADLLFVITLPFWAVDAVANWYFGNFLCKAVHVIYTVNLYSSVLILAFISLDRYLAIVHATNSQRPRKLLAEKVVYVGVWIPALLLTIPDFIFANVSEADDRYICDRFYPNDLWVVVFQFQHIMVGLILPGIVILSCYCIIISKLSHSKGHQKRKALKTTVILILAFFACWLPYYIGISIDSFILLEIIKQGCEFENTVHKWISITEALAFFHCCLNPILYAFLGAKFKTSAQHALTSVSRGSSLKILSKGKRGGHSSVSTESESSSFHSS

[8] = Metabolic stability in human liver microsomes assessed as parent compound remaining at 0.5 uM after 10 mins in presence of NADPH by LC-MS/MS analysis
[9] = molecular target: T1, C-X-C chemokine receptor type 4; assay: Antagonist activity at human CXCR4 in CCRF-CEM cells assessed as decrease in SDF-1alpha stimulated Ca2+ flux preincubated for 25 mins followed by SDF-1alpha addition measured for 90 secs by calcium dye-based fluorescence assay; format: functional, cell-based
[10] = molecular target: Cytochrome P450 3A4 (Homo sapiens, UniProt P08684); assay: Inhibition of CYP3A4 (unknown origin)
Chain of Cytochrome P450 3A4 (P08684 whole entry): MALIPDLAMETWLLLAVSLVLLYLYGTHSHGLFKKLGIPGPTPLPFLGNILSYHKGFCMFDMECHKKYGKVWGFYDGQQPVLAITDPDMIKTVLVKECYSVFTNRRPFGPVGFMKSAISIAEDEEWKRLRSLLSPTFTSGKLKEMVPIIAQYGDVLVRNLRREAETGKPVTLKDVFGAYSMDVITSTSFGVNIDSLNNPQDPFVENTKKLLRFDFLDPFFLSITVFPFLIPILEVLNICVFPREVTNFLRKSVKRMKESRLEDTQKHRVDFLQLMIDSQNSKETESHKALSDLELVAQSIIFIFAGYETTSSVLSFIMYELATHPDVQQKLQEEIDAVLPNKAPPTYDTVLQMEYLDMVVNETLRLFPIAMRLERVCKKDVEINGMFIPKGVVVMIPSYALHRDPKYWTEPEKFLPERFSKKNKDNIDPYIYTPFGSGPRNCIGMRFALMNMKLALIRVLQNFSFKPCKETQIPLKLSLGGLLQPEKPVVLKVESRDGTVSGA

[11] = molecular target: T2, Cytochrome P450 2C8 (Homo sapiens, UniProt P10632); assay: Inhibition of CYP2C8 (unknown origin)
T2 sequence (P10632 whole entry): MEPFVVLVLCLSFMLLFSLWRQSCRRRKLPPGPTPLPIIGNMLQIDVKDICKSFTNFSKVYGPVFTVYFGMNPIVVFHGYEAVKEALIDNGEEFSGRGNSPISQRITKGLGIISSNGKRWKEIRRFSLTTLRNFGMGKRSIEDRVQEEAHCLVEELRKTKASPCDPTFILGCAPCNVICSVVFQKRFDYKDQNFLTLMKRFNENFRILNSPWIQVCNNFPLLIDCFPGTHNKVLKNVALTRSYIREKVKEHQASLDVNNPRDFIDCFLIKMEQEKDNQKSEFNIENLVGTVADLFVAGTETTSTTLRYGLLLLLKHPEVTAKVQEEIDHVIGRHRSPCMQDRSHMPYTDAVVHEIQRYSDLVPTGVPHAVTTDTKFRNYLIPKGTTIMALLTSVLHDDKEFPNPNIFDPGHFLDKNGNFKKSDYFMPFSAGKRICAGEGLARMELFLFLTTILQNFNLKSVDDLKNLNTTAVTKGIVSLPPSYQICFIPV

[12] = molecular target: Cytochrome P450 2C19 (Homo sapiens, UniProt P33261); assay: Inhibition of CYP2C19 (unknown origin)
Chain of Cytochrome P450 2C19 (P33261 whole entry): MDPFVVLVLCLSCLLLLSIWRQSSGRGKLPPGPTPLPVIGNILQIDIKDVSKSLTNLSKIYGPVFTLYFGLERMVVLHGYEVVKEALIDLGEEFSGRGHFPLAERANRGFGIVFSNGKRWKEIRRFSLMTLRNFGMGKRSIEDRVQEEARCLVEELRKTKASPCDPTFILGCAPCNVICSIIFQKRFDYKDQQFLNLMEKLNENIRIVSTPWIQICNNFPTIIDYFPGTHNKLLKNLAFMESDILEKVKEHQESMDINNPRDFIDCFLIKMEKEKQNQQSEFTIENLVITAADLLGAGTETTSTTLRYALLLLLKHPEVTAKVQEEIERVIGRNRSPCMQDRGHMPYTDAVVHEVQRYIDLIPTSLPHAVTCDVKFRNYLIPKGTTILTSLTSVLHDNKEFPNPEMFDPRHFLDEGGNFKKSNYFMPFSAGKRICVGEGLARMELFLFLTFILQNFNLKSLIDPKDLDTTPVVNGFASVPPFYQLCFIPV

[13] = molecular target: Cytochrome P450 2C9 (Homo sapiens, UniProt P11712); assay: Inhibition of CYP2C9 (unknown origin)
Chain of Cytochrome P450 2C9 (P11712 whole entry): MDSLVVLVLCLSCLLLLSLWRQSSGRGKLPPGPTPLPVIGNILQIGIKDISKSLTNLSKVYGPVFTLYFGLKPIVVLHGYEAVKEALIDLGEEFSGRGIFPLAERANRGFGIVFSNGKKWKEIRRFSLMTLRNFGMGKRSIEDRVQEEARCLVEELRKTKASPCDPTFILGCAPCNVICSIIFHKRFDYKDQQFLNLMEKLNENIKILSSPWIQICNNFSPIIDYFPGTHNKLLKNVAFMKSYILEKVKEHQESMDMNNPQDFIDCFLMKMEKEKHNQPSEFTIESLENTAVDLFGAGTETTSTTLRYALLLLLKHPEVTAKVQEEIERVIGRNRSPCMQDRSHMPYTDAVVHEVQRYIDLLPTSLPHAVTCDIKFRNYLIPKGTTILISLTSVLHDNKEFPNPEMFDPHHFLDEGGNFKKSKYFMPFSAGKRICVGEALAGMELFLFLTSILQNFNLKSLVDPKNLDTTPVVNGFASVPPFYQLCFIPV

[14] = Inhibition of CYP1A4 (unknown origin)

Chain of Cytochrome P450 2D6 (P10635 whole entry): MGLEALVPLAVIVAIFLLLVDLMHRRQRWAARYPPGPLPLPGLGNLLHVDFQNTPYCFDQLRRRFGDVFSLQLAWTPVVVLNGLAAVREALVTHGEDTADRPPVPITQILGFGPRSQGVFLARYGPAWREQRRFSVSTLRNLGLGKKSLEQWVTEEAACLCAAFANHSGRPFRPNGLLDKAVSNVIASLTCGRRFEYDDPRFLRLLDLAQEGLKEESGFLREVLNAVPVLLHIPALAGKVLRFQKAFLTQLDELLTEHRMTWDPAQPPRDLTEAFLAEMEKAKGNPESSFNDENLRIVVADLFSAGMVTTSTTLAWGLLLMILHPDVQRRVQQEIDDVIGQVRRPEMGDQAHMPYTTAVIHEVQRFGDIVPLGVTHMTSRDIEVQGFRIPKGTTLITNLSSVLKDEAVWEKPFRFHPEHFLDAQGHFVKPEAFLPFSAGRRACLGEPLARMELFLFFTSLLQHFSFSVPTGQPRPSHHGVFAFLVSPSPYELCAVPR

| SMILES | IC50 [1] [µM] | IC50 [2] [µM] | Papp at 4 h, 100 µM [3] [×10⁻⁶ cm/s] | EC50 [4] [µM] | remaining at 10 min, 0.5 µM [5] [%] | Papp at 4 h, 100 µM [6] [×10⁻⁶ cm/s] | EC50 [7] [µM] | remaining at 10 min, 0.5 µM [8] [%] | IC50 [9] [µM] | IC50 [10] [µM] | IC50 [11] [µM] | IC50 [12] [µM] | IC50 [13] [µM] | IC50 [14] [µM] |
| --- | --- | --- | --- | --- | --- | --- | --- | --- | --- | --- | --- | --- | --- | --- |
| NC/C=C\CN(C[C@H]1Cc2ccccc2CN1)[C@H]1CCCc2cccnc21 | 0.333 | 0.605 | 56.9 | > 30 | 4.36 | 3.9 | > 30 | 100 | 0.00926 |  |  |  |  |  |
| C(=C\CN(C[C@H]1Cc2ccccc2CN1)[C@H]1CCCc2cccnc21)/CNCc1ccccn1 | 0.709 | 22 | 5 | > 30 | 2.98 | 1.8 | > 30 | 31.2 |  |  |  |  |  |  |
| CC1(C)CCC(NC/C=C/CN(C[C@H]2Cc3ccccc3CN2)[C@H]2CCCc3cccnc32)CC1 | 0.66 | 2.45 |  | > 30 | 7.71 |  | > 30 | 42 |  | 0.99 |  |  |  |  |
| CC(C)(CCN(C[C@H]1Cc2ccccc2CN1)[C@H]1CCCc2cccnc21)CNC1CCC(F)(F)CC1 | 2.04 | 18.8 | 2.2 | > 30 | 16.8 | 1.75 | > 30 | 16.1 | 0.168 |  | < 5 | < 5 | < 5 | < 5 |
| CC(C)(CCN)CN(C[C@H]1Cc2ccccc2CN1)[C@H]1CCCc2cccnc21 | 0.197 | > 33.3 | 25.5 | > 30 | 5.22 | 26.8 | > 30 | 76.1 | > 33.3 | 10.8 |  |  |  |  |
| CC1(C)CCC(NCC(C)(C)CCN(C[C@H]2Cc3ccccc3CN2)[C@H]2CCCc3cccnc32)CC1 | 2.22 | 18.8 | 2.8 | > 30 | 51.1 | 1.1 | > 30 | 23.9 | 0.541 | 7.83 | < 5 | < 5 | < 5 | < 5 |
| FC1(F)CCC(NC/C=C/CN(C[C@H]2Cc3ccccc3CN2)[C@H]2CCCc3cccnc32)CC1 | 1.45 | 6.98 | 4.9 | > 30 | 2.12 | 0.9 | > 30 | 31.7 |  |  |  |  |  |  |
| CC(C)(CN)CCN(C[C@H]1Cc2ccccc2CN1)[C@H]1CCCc2cccnc21 | 0.498 | > 16.7 | 40.5 | > 30 | 51.2 |  | > 30 | 88.7 | 0.069 | > 20 |  |  |  |  |
| NC/C=C/CN(C[C@H]1Cc2ccccc2CN1)[C@H]1CCCc2cccnc21 | 0.51 | > 16.7 | 82.9 | > 30 | 10.7 | 26.4 | > 30 | 100 | 0.129 |  |  |  |  |  |
| CC1(C)CCC(NCCCCN(C[C@H]2Cc3ccccc3CN2)[C@H]2CCCc3cccnc32)CC1 | 0.09 | 19.9 | 0.3 | > 30 | 50 |  | > 30 | 30.1 | 0.0776 |  |  |  |  |  |
| c1ccc2c(c1)CN[C@@H](CN(CCCCN(Cc1ccncc1)Cc1ccncc1)[C@H]1CCCc3cccnc31)C2 | 0.12 | 11.4 | 77.4 | > 30 | 1.55 | 18 | > 30 | 0.521 | 0.832 | 0.622 |  |  |  |  |
| c1ccc(CN(CCCCN(C[C@H]2Cc3ccccc3CN2)[C@H]2CCCc3cccnc32)Cc2ccccn2)nc1 | 1.16 | 12.9 | 29.4 | > 30 | 0.374 | 4.8 | > 30 | 0.548 | 0.664 |  |  |  |  |  |
| c1cncc(CN(CCCCN(C[C@H]2Cc3ccccc3CN2)[C@H]2CCCc3cccnc32)Cc2cccnc2)c1 | 0.348 | 11.5 | 43.5 | > 30 | 1.4 | 9.1 | > 30 | 0.432 | 0.471 |  |  |  |  |  |
| NCc1ccccc1CN(C[C@H]1Cc2ccccc2CN1)[C@H]1CCCc2cccnc21 | 0.318 | 1.2 | 21.4 | > 30 | 1.29 | 18.4 | > 30 | 50.5 | 0.0508 |  |  |  |  |  |
| CC(C)(N)CCCN(C[C@H]1Cc2ccccc2CN1)[C@H]1CCCc2cccnc21 | 0.345 | > 16.7 |  | > 30 | 3.32 | 2 | > 30 | 73.5 | 0.0246 | > 20 |  |  |  |  |
| c1ccc2c(c1)CN[C@@H](CN(CCCCNC1CCSCC1)[C@H]1CCCc3cccnc31)C2 | 0.434 | > 33.3 | 0.2 | > 30 | 23.2 | 4.6 | > 30 | 39.9 | 0.0547 |  |  |  |  |  |
| c1ccc2c(c1)CN[C@@H](CN(CCCCNCC1CCCCC1)[C@H]1CCCc3cccnc31)C2 | 0.354 | > 16.7 | 0.9 | > 30 | 41.8 | 2.1 | > 30 | 50 | 0.158 |  |  |  |  |  |
